Columns and labels:
[1] = test system: [Ca^2+]i; experiment: Intracellular Ca^2+ by Fura2 imaging, WT and GluN2A KO mouse neuronal cultures; type: cell-based, mice; conditions: somata and processes, L-homocysteine 50 μM, 60 min
Protocol: Embryos obtained from pregnant Sprague Dawley rats (16-17-day gestation) or wild type (WT) and GluN2A KO mice (15-16-day gestation) were used to establish primary cortical neuronal cultures as previously described (Poddar and Paul, 2009, J Neurochem 110:1095-1106; Poddar and Paul, 2013, J Neurochem 124:558-570; Poddar et al., 2017, J Neurochem 142:560-573). Neurons were grown on either (a) 35-mm culture dishes (MatTek Corp., Ashland, Mass.) coated overnight with poly-D-lysine (50 μg/ml) and laminin (10 μg/ml) for Ca^2+ imaging studies, (b) poly-D-lysine-coated 60 mm dishes (Corning BIOCOAT, Corning Inc., Corning, N.Y.) for biochemical studies, or (c) poly-D-lysine-coated 4-well culture slides (Corning BIOCOAT, Corning Inc., Corning, N.Y.) for cell death assay. Neurons were maintained in culture for 12-13 days before experiment. The cells were treated with freshly prepared L-homocysteine (50 μM) in Hank's balanced salt solution containing 50 μM of glycine (Lipton et al., 1997, Proceedings of the National Academy of Sciences of the United States of America 94:5923-5928; Poddar and Paul, 2009, J Neurochem 110:1095-1106; Poddar and Paul, 2013, J Neurochem 124:558-570; Poddar et al., 2017, J Neurochem 142:560-573) for the specified time periods. In a parallel series of experiments, cells were treated with glutamate (50 μM) for the specified time periods. Cells were then processed for live cell imaging, immunoblotting or cell death assay. In some experiments EGTA, DL-AP5, NVP-AAM077, Ro 25-6981 or PD98059 was added 15 minutes prior to L-homocysteine or glutamate treatment.
[Ca^2+]i in neurons was determined using the fluorescent indicator, Fura2-AM. […] Fluorescence excitations (340 and 380 nm) were provided with Sutter LB-LS/30 Lambda xenon arc lamp and fluorescence emissions (510 nm) were captured using a CCD camera (Teledyne Photometries, Tucson, Ariz.). […] Maximum and minimum fluorescence ratios were determined from Fura2 loaded cells treated with ionomycin (5 μM) in calcium containing medium (2 mM) or in calcium free media with EGTA (0.5 mM).

[2] = test system: hyperhomocysteinemic rats subjected to MCAO; experiment: CatWalk gait analysis after MCAO; type: in vivo, male Wistar rats; conditions: HHcy rats, 7 days after MCAO, NVP-AAM077 1.2 mg/kg
Protocol: (§1) All rats were subjected to a battery of behavioral tests on day 7 (CatWalk), day 8 (cylinder and rotarod tests) and day 9 (adhesive test) after MCAO to evaluate normal gait, motor coordination and sensory motor functions. Habituation and training (3 days) was performed for one week before MCAO. The first two trainings days were before osmotic pump implantation and the third training day was after pump implantation. An experienced observer blinded to the experimental conditions evaluated all behavioral parameters.
Catwalk: An automated quantitative gait analysis system (Catwalk XT 10.5, Noldus) was used to assess deficits in normal gait in the control, hyperhomocysteinemic and NVP-AAM077 treated hyperhomocysteinemic rats as described earlier (Parkkinen et a., 2013, Stroke Res Treat 2013:410972; Wang et al., 2008, J Cereb Blood Flow Metab 28:1936-50). Briefly, rats were trained to walk on a glass platform or walkway (1.3 m long and 90 mm wide) with a fluorescent light reflected internally in the glass floor as the rats cross the walkway, scattering at points where the paws touch the glass. […] The camera recorded three such complete or successful runs across the walkway and the average of the three runs is reported. An experienced observer, blinded to the experimental group, labeled each paw on the recorded video and paw-related parameters were analyzed. […]

[3] = test system: hyperhomocysteinemic rats subjected to MCAO; experiment: Cylinder test after MCAO; type: in vivo, male Wistar rats; conditions: HHcy rats, day 8 after MCAO, NVP-AAM077 1.2 mg/kg; untreated HHcy 24.24±2.37%
Protocol: as §1
Cylinder test: Control, hyperhomocysteinemic and NVP-AAM077 treated hyperhomocysteinemic rats were subjected to cylinder test to assess the post-stroke asymmetry in fore-limb use (Balkaya, 2013, J Cereb Blood Flow Metab 33:330-338). The rats were placed individually inside a transparent plexiglass cylinder (diameter 20 cm, height 45 cm). A vertical exploration movement with either the left or right forelimb along the wall was scored as contact of each paw with the glass wall for a total period of 2 minutes. Simultaneous contact by both paws was scored separately. Two trials (10 min rest between trials) were recorded and the percentage use of the affected fore limb was calculated (Liu et al., 2013, Behav Brain Res 257:166-177; Schaar et al., 2010, Exp Transl Stroke Med 2:13).

SMILES: N[C@@H](CCS)C(=O)O [L-homocysteine]
- Fura2 fluorescence ratio and [Ca^2+]i ([1]; neurons from GluN2A KO mice): fails to increase Fura2 fluorescence ratio or [Ca^2+]i
- Fura2 fluorescence ratio and [Ca^2+]i ([1]; neurons from WT mice): progressive increase in Fura2 fluorescence ratio and [Ca^2+]i

SMILES: C[C@H](NC(c1cccc2[nH]c(=O)c(=O)[nH]c12)P(=O)(O)O)c1ccc(Br)cc1 (stereo partly drawn) [NVP-AAM077, ({[(1S)-1-(4-bromophenyl)ethyl]amino}-(2,3-dioxo-1,4-dihydroquinoxalin-5-yl)methyl)phosphonic acid]
- print position of the affected side ([2]; untreated HHcy 0.72±0.15): 1.37±0.097 cm
- print area of the affected forepaw ([2]; untreated HHcy 1.06±0.097): 1.41±0.092 cm^2
- spontaneous usage of the affected forepaw [3]: 40.51±1.86%
